Measurements: patent US12503451B2, “2-arylthiazole derivative or salt thereof, preparation method therefor, and pharmaceutical composition comprising same” (HEXAPHARMATEC CO., LTD., priority 2020, dated 2025)

Assays:
[1] = system: dimethylnitrosamine (DMN)-induced liver injury male SD rats; test: Liver function-improving activities by oral administration in the liver injury model (1); format: in vivo, rat; details: 25 mg/kg oral once a day with DMN
Experimental: The compounds according to the present invention were orally administered to dimethylnitrosamine (DMN)-induced liver injury male SD rats for 3 weeks, so as to evaluate liver function-improving activities. Specifically, 7-week-old male SD rats (Orient Bio, Korea) were accommodated to the laboratory environment at room temperature for 7 days. General symptoms were observed and then only healthy animals were used for the experiment. […] DMN was dissolved in purified water and then administered intraperitoneally at the dose of 10 mg/kg for 3 consecutive days per week (3 times per week, for 4 weeks). […] The collected blood was injected into a vacutainer tube containing a clot activator and then allowed to stand at room temperature for about 20 minutes so as to coagulate each blood sample. After centrifugation for 10 minutes, the resulting serums were subjected to blood-biochemical tests. The results obtained from the measurements were subject to group comparison, through parametric multiple comparisons or non-parametric multiple comparisons, with SPSS. When P<0.05, it was determined to be statistically significant.

[2] = system: dimethylnitrosamine (DMN)-induced liver injury male SD rats; test: Liver function-improving activities by oral administration in the liver injury model (2); format: in vivo, rat; details: for Inhibitory activity against liver fibrosis (in words) / Degenerative hepatocyte numbers / Inflammatory cell numbers / Collagen fiber occupied regions: 25 mg/kg oral 4 weeks; for Inhibitory activity against liver fibrosis (in words): histology; for Degenerative hepatocyte numbers / Inflammatory cell numbers: H&E staining of liver; for Degenerative hepatocyte numbers / Inflammatory cell numbers / Collagen fiber occupied regions: autopsy 24 hours after last administration; for Collagen fiber occupied regions: Masson's trichrome staining of liver
Experimental: Specifically, 7-week-old male SD rats (Orient Bio, Korea) were accommodated to the laboratory environment at room temperature for 7 days. General symptoms were observed and then only healthy animals were used for the experiment. The rats were divided into 5 groups (n=10 for each group), i.e., the normal control group, the group to which only DMN is administered, and the group to which both the compound of the present invention (the compound of Example 23, 26, or 29) and DMN are administered. DMN was dissolved in purified water and then administered intraperitoneally at the dose of 10 mg/kg for 3 consecutive days per week (3 times per week, for 4 weeks). Blood samples were collected after the completion of the fourth-week liver injury inducement and then the serum ALT (Alanine Transaminase) values and the serum AST (Aspartate Transaminase) values were measured so as to confirm the liver injury thereof. […] Blood samples were collected on Day 0 (1 day after the completion of the fourth-week liver injury inducement) and Day 7, 14, 21 and 28 after the administration of the test materials. The collected blood was injected into a vacutainer tube containing a clot activator and then allowed to stand at room temperature for about 20 minutes so as to coagulate each blood sample. After centrifugation for 10 minutes, the resulting serums were subjected to blood-biochemical tests. In addition, at 24 hours after the last administration, an autopsy for hepatectomy and fixation was performed to prepare the tissue specimens thereof. After preparing the slides with the tissue specimens, hematoxylin and eosin (H&E) staining was performed thereon for microscopic observation of damages to liver tissue and inflammatory cell infiltrations in liver tissues. In addition, Masson's trichrome staining was also performed thereon for microscopic observation of collagen fiber depositions in liver tissues. The results obtained from the measurements were subject to group comparison, through parametric multiple comparisons or non-parametric multiple comparisons, with SPSS. When P<0.05, it was determined to be statistically significant. […] Therefore, it can be confirmed that the compounds of the present invention have excellent treating activity against liver fibrosis. […] From the results of FIG. 4, the degrees of damage to liver tissue and inflammatory cell infiltration in liver tissues were measured. And also, from the results of FIG. 4, the degree of collagen fiber deposition in liver tissues was measured.

[3] = system: primary mouse cortical neuron cells; test: Autophagic vesicle formation (CYTO-ID Autophagy Detection Kit); format: cell-based; details: 10 μM; 24 hours; untreated control = 1
Experimental: Autophagy lysosomal pathway (ALP) activation by the compounds of the present invention was verified, through measuring the degree of autophagic vesicle formation in neuron cells with the CYTO-ID™ Autophagy Detection Kit (ENZ-51031-K200, Enzo Life Sciences, Inc.). Neuron cells (i.e., primary mouse cortical neuron cells) were isolated from mice using an enzymatic digest method. Specifically, primary mouse cortical neuron cells were isolated by incubating the cortice tissues derived from 16 day embryonic C57BL6 mice, at 37° C. for 30 minutes, with 20 U/ml papain (Worthington Biochemical Corporation, LK003176) and 0.005% DNase I (Worthington Biochemical Corporation, LK003170).
The primary mouse cortical neuron cells (8×10^4 cells) and a medium (a neural cell culture media containing 2 mM L-glutamine (Gibco, 25030-081), N2 supplement (Gibco, 17502-048), B27 supplement (Gibco, 17504-044), and 50 μg/ml penicillin-streptomycin (Gibco, 15140-122)) were added to each well of a 96-well plate and then incubated overnight at 37° C. in a CO2 incubator. The compound of Example 10 (5 μM), the compound of Example 29 (5 μM), and rapamycin (10 μM) were respectively treated to the cells, which were incubated at 37° C. in a CO2 incubator for 24 hours. After each well was washed with 1×Assay Buffer (Enzo Life Science, ENZ-51031-K200), 0.2 μl of Cyto-ID autophagy dye and 0.1 μl of Hoechst 33342 were treated to the cells, which were incubated at 37° C. in a CO2 incubator for 30 minutes. After each well was washed with 1×Assay Buffer (Enzo Life Science, ENZ-51031-K200), the fluorescence values of Cyto-ID (EX: 480 nm, EM: 530 nm) and Hoechst 33342 (EX: 340 nm, EM: 480 nm) were respectively measured with a fluorometer. Three wells were tested for each group. After normalization was carried out through dividing the Cyto-ID fluorescence value of each well by Hoechst 33342 fluorescence value, each relative intensity was calculated by setting that of the untreated control to 1.

N2a cells = test: Autophagy flux by electron microscope imaging; format: cell-based, mouse; details: 10 μM; 24 hours
Experimental: N2a cells (ATCC, CCL-131, mouse neuroblastoma cell line) (3×10^4 cells) and a medium (DMEM (Dulbecco's modified Eagle's medium, Gibco, 11995-065) supplemented with 5% heat-inactivated fetal bovine serum, FBS; Gibco, 16000-044) and 50 μg/ml penicillin-streptomycin (Gibco, 15140-122) were added to each well of a 6-well plate and incubated overnight at 37° C. in a CO2 incubator. The compound of Example 29 (5 μM) and rapamycin (10 μM) were respectively treated and then incubated at 37° C. in a CO2 incubator for 24 hours. Three wells per each group were subject to electron microscope block formation and then pre-fixation, post-fixation, dehydration, substitution, and embedding were carried out according to a flat-embedding method. After ultra-thin sections having a thickness of 70 nm were prepared, heavy metal staining (uranyl acetate, lead citrate) was carried out on the each section, which was photographed through a mosaic imaging technique for imaging the entire cells. In addition, the results obtained by measuring the numbers of the total autophagies (autophagic vesicles), autophagosomes, and autolysosomes per cell according to the treatment groups are shown in Table 3 below. In Table 3 below, the control means the untreated control.

[4] = 0 week (Day 0, before administration)
[5] = 0 week (Day 0, after 4 weeks DMN, before administration)
[6] = 1 week, 25 mg/kg oral once a day after 4 weeks DMN
[7] = 2 weeks, 25 mg/kg oral once a day after 4 weeks DMN
[8] = 3 weeks, 25 mg/kg oral once a day after 4 weeks DMN
[9] = 4 weeks, 25 mg/kg oral once a day after 4 weeks DMN

Row | Compound | ALT values (average value) [1, 4] | AST values (average value) [1, 4] | ALT values (average value) ([1]; 1 week) | AST values (average value) ([1]; 1 week) | ALT values (average value) ([1]; 2 weeks) | AST values (average value) ([1]; 2 weeks) | ALT values (average value) ([1]; 3 weeks) | AST values (average value) ([1]; 3 weeks) | ALT values (average value) [2, 5] | AST values (average value) [2, 5] | Inhibitory activity against liver fibrosis (in words) [2] | ALT values (average value) [2, 6] | AST values (average value) [2, 6] | ALT values (average value) [2, 7] | AST values (average value) [2, 7] | ALT values (average value) [2, 8] | AST values (average value) [2, 8] | ALT values (average value) [2, 9] | AST values (average value) [2, 9] | Degenerative hepatocyte numbers [2] | further results
1 | Cc1nc(-c2ccc(OCC(C)C)c(C#N)c2)sc1C(=O)NCCN(C(C)C)C(C)C.Cl [Example 2, N-(2-(diisopropylamino)ethyl)-2-(3-cyano-4-isobutoxyphenyl)-4-methylthiazole-5-carboxamide hydrochloride] | 70.76 U/L | 138.50 U/L | 93.68 U/L | 180.72 U/L | 107.06 U/L | 218.90 U/L | 117.02 U/L | 231.54 U/L | – | – | – | – | – | – | – | – | – | – | – | – | –
2 | CCN(CC)CCOc1ccc(-c2nc(C)c(C(=O)NCCN(C(C)C)C(C)C)s2)cc1C#N.Cl.Cl [Example 23, N-(2-(diisopropylamino)ethyl)-2-(4-(2-diethylamino)ethoxy-3-cyanophenyl)-4-methylthiazole-5-carboxamide hydrochloride] | 67.64 U/L | 145.10 U/L | 94.40 U/L | 208.56 U/L | 97.64 U/L | 221.58 U/L | 101.04 U/L | 203.44 U/L | 198.30 U/L | 395.34 U/L | excellent inhibitory activity against liver fibrosis | 104.22 U/L | 169.11 U/L | 65.66 U/L | 140.57 U/L | 60.95 U/L | 128.30 U/L | 52.93 U/L | 125.15 U/L | 319.14 ± 44.66 cells/1000 cells | Inflammatory cell numbers [2]: 101.43 ± 16.53 cells/mm^2; Collagen fiber occupied regions [2]: 12.44 ± 2.03 %/mm^2
3 | CCN(CC)CCOc1ccc(-c2nc(C)c(C(=O)NCCN3CCOCC3)s2)cc1C#N.Cl.Cl [Example 26, N-(2-(4-morpholino)ethyl)-2-(4-(2-diethylamino)ethoxy-3-cyanophenyl)-4-methylthiazole-5-carboxamide hydrochloride] | – | – | – | – | – | – | – | – | 199.51 U/L | 322.72 U/L | excellent inhibitory activity against liver fibrosis | 134.97 U/L | 153.48 U/L | 70.09 U/L | 145.71 U/L | 62.81 U/L | 138.76 U/L | 59.12 U/L | 114.45 U/L | 259.14 ± 42.56 cells/1000 cells | AST value compared with the normal control group (in words) ([2]; 4 weeks after the administration, 25 mg/kg oral): equivalent to that of the normal control group; Inflammatory cell numbers [2]: 90.00 ± 20.67 cells/mm^2; Collagen fiber occupied regions [2]: 10.75 ± 2.17 %/mm^2
4 | CO[C@H]1C[C@@H]2CC[C@@H](C)[C@@](O)(O2)C(=O)C(=O)N2CCCC[C@H]2C(=O)O[C@H]([C@H](C)C[C@@H]2CC[C@@H](O)[C@H](OC)C2)CC(=O)[C@H](C)/C=C(\C)[C@@H](O)[C@@H](OC)C(=O)[C@H](C)C[C@H](C)/C=C/C=C/C=C/1C [Rapamycin, rapamycin, reference compound] | – | – | – | – | – | – | – | – | – | – | – | – | – | – | – | – | – | – | – | – | Cyto-ID fluorescence value (relative intensity) [3]: 1.668; Numbers of the autophagy per cell: Autolysosome (N2a cells): 7.6; Numbers of the autophagy per cell: Autophagic vesicles (N2a cells): 13.3; Numbers of the autophagy per cell: Autophagosome (N2a cells): 4.1
